From patent publication US9920010B2, “CXCR7 receptor modulators” (IDORSIA PHARMACEUTICALS LTD, priority 2013, dated 2018)

These compounds were tested against T1, CXCR7 (Homo sapiens, UniProt P25106) (assay: PathHunter CHO-K1 CXCR7 b-arrestin recruitment assay (CXCR7 agonistic activity)). Conditions: PathHunter CHO-K1 CXCR7 b-arrestin cell line.
T1 construct: host or cells: CHO-K1 (PathHunter CHO-K1 CXCR7 b-arrestin cell line, stably transfected)
Type: cell-based
How it was run: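 Stable CHO-K1 line with C-terminally ProLink-tagged CXCR7 and β-arrestin 2–EA fusion; β-arrestin recruitment restores β-gal activity, read by chemiluminescence after 1 h RT detection. Cells seeded 24 h, starved in OPTIMEM 3–4 h, exposed to compounds 90 min at 37 °C in HBSS/HEPES/BSA. Geometric-mean EC50 from repeated measurements.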

T1 sequence (P25106 whole entry): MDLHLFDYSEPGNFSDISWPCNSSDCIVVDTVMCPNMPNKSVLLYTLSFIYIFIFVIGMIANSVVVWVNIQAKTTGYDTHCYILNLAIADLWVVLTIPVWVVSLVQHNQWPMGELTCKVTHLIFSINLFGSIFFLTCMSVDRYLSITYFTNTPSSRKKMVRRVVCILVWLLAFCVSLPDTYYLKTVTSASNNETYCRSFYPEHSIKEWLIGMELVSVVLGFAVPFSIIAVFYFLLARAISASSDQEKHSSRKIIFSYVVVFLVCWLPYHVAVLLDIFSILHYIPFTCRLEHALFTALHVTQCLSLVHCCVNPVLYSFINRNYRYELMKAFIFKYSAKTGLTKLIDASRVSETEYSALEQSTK
T1 sequence (P32121 whole entry partner): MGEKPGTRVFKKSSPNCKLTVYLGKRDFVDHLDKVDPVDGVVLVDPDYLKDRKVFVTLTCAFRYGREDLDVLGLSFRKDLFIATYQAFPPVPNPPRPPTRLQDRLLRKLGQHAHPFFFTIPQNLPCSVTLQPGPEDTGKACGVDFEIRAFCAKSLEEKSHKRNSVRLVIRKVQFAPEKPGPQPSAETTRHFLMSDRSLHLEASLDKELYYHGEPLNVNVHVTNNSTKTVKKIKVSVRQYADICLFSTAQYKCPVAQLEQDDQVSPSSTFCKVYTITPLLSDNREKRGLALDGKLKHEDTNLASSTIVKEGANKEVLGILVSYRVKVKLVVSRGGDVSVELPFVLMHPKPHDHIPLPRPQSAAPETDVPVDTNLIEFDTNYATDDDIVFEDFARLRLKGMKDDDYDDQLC

Row | Structure (SMILES) | EC50
1 | CCC(=O)N1CCc2c(cccc2NCC(=O)N(CCN(C)C)Cc2ccc(C)cc2)C1 [Example 16, N-(2-Dimethylamino-ethyl)-N-(4-methyl-benzyl)-2-(2-propionyl-1,2,3,4-tetrahydro-isoquinolin-5-ylamino)-acetamide] | 63 nM
2 | CCC(=O)N1CCc2c(cccc2NCC(=O)N(CCc2ccccc2)CCN(C)C)C1 [Example 17, N-(2-Dimethylamino-ethyl)-N-phenethyl-2-(2-propionyl-1,2,3,4-tetrahydro-isoquinolin-5-ylamino)-acetamide] | 135 nM
3 | CCC(=O)N1CCc2c(cccc2NCC(=O)N(CCN(C)C)Cc2cccc(Cl)c2)C1 [Example 18, N-(3-Chloro-benzyl)-N-(2-dimethylamino-ethyl)-2-(2-propionyl-1,2,3,4-tetrahydro-isoquinolin-5-ylamino)-acetamide] | 61 nM
4 | CCC(=O)N1CCc2c(cccc2NCC(=O)N(CCN(C)C)Cc2ccccc2Cl)C1 [Example 20, N-(2-Chloro-benzyl)-N-(2-dimethylamino-ethyl)-2-(2-propionyl-1,2,3,4-tetrahydro-isoquinolin-5-ylamino)-acetamide] | 11 nM
5 | CCC(=O)N1CCc2c(cccc2NCC(=O)N(CCN(C)C)Cc2cccc(F)c2)C1 [Example 21, N-(2-Dimethylamino-ethyl)-N-(3-fluoro-benzyl)-2-(2-propionyl-1,2,3,4-tetrahydro-isoquinolin-5-ylamino)-acetamide] | 39 nM
6 | CCC(=O)N1CCc2c(cccc2NCC(=O)N(CCN(C)C)Cc2ccccc2F)C1 [Example 23, N-(2-Dimethylamino-ethyl)-N-(2-fluoro-benzyl)-2-(2-propionyl-1,2,3,4-tetrahydro-isoquinolin-5-ylamino)-acetamide] | 16 nM
7 | CCC(=O)N1CCc2c(cccc2NCC(=O)N(Cc2ccccc2)Cc2nccn2C)C1 [Example 26, N-Benzyl-N-(1-methyl-1H-imidazol-2-ylmethyl)-2-(2-propionyl-1,2,3,4-tetrahydro-isoquinolin-5-ylamino)-acetamide] | 442 nM
8 | CCC(=O)N1CCc2c(cccc2NCC(=O)N(CCN(C)C)Cc2cccc(OC)c2)C1 [Example 29, N-(2-Dimethylamino-ethyl)-N-(3-methoxy-benzyl)-2-(2-propionyl-1,2,3,4-tetrahydro-isoquinolin-5-ylamino)-acetamide] | 174 nM
9 | CCC(=O)N1CCc2c(cccc2NCC(=O)N(CCN(C)C)Cc2ccc(OC)cc2)C1 [Example 30, N-(2-Dimethylamino-ethyl)-N-(4-methoxy-benzyl)-2-(2-propionyl-1,2,3,4-tetrahydro-isoquinolin-5-ylamino)-acetamide] | 283 nM
10 | CCCCN(C)CCN(Cc1ccccc1)C(=O)CNc1cccc2c1CCN(C(=O)CC)C2 [Example 31, N-Benzyl-N-[2-(butyl-methyl-amino)-ethyl]-2-(2-propionyl-1,2,3,4-tetrahydro-isoquinolin-5-ylamino)-acetamide] | 13 nM
11 | CCC(=O)N1CCc2c(cccc2NCC(=O)N(CCN(C)C)Cc2ccccc2C(F)(F)F)C1 [Example 35, N-(2-Dimethylamino-ethyl)-2-(2-propionyl-1,2,3,4-tetrahydro-isoquinolin-5-ylamino)-N-(2-trifluoromethyl-benzyl)-acetamide] | 4 nM
12 | CN(C)CCCN(Cc1ccccc1)C(=O)CNc1cccc2c1CCN(CC1CC1)C2 [Example 37, N-Benzyl-2-(2-cyclopropylmethyl-1,2,3,4-tetrahydro-isoquinolin-5-ylamino)-N-(3-dimethylamino-propyl)-acetamide] | 4 nM
13 | CN(C)CCN(Cc1ncccc1Cl)C(=O)CNc1cccc2c1CCN(CC1CC1)C2 [Example 39, N-(3-Chloro-pyridin-2-ylmethyl)-2-(2-cyclopropylmethyl-1,2,3,4-tetrahydro-isoquinolin-5-ylamino)-N-(2-dimethylamino-ethyl)-acetamide] | 4 nM
14 | Cc1ccccc1CCN(CCN(C)C)C(=O)CNc1cccc2c1CCN(CC1CC1)C2 [Example 40, 2-(2-Cyclopropylmethyl-1,2,3,4-tetrahydro-isoquinolin-5-ylamino)-N-(2-dimethylamino-ethyl)-N-(2-o-tolyl-ethyl)-acetamide] | 44 nM
15 | C/C(=C\c1ccccc1)CN(CCN(C)C)C(=O)CNc1cccc2c1CCN(CC1CC1)C2 [Example 45, 2-(2-Cyclopropylmethyl-1,2,3,4-tetrahydro-isoquinolin-5-ylamino)-N-(2-dimethylamino-ethyl)-N-((E)-2-methyl-3-phenyl-allyl)-acetamide] | 8 nM
16 | CC(C)CCN(Cc1ccccc1C(F)(F)F)C(=O)CNc1cccc2c1CCN(CC1CC1)C2 [Example 48, 2-(2-Cyclopropylmethyl-1,2,3,4-tetrahydro-isoquinolin-5-ylamino)-N-(3-methyl-butyl)-N-(2-trifluoromethyl-benzyl)-acetamide] | 52 nM

Now from value to compound:

Row | EC50 | Structure (SMILES)
17 | 102 nM | CCC(=O)N1CCc2c(cccc2NCC(=O)N(CCN(C)C)Cc2ccc(Cl)cc2)C1 [Example 19, N-(4-Chloro-benzyl)-N-(2-dimethylamino-ethyl)-2-(2-propionyl-1,2,3,4-tetrahydro-isoquinolin-5-ylamino)-acetamide]
18 | 80 nM | CCC(=O)N1CCc2c(cccc2NCC(=O)N(CCN(C)C)Cc2ccc(F)cc2)C1 [Example 22, N-(2-Dimethylamino-ethyl)-N-(4-fluoro-benzyl)-2-(2-propionyl-1,2,3,4-tetrahydro-isoquinolin-5-ylamino)-acetamide]
19 | 28 nM | CCC(=O)N1CCc2c(cccc2NCC(=O)N(CCN2CCCC2)Cc2ccccc2)C1 [Example 24, N-Benzyl-2-(2-propionyl-1,2,3,4-tetrahydro-isoquinolin-5-ylamino)-N-(2-pyrrolidin-1-yl-ethyl)-acetamide]
20 | 309 nM | CCC(=O)N1CCc2c(cccc2NCC(=O)N(Cc2ccccc2)Cc2ccccn2)C1 [Example 25, N-Benzyl-2-(2-propionyl-1,2,3,4-tetrahydro-isoquinolin-5-ylamino)-N-pyridin-2-ylmethyl-acetamide]
21 | 19 nM | CCC(=O)N1CCc2c(cccc2NCC(=O)N(CCN(CC)CC)Cc2ccccc2)C1 [Example 27, N-Benzyl-N-(2-diethylamino-ethyl)-2-(2-propionyl-1,2,3,4-tetrahydro-isoquinolin-5-ylamino)-acetamide]
22 | 63 nM | CCC(=O)N1CCc2c(cccc2NCC(=O)N(CCN(C)C)Cc2ccccc2OC)C1 [Example 28, N-(2-Dimethylamino-ethyl)-N-(2-methoxy-benzyl)-2-(2-propionyl-1,2,3,4-tetrahydro-isoquinolin-5-ylamino)-acetamide]
23 | 16 nM | CCC(=O)N1CCc2c(cccc2NCC(=O)N(CCN(C)C)Cc2cccc(C(F)(F)F)c2)C1 [Example 33, N-(2-Dimethylamino-ethyl)-2-(2-propionyl-1,2,3,4-tetrahydro-isoquinolin-5-ylamino)-N-(3-trifluoromethyl-benzyl)-acetamide]
24 | 132 nM | CCC(=O)N1CCc2c(cccc2NCC(=O)N(CCN(C)C)Cc2ccc(C(F)(F)F)cc2)C1 [Example 34, N-(2-Dimethylamino-ethyl)-2-(2-propionyl-1,2,3,4-tetrahydro-isoquinolin-5-ylamino)-N-(4-trifluoromethyl-benzyl)-acetamide]
25 | 25 nM | CN(C)CCN(CCc1ccccc1)C(=O)CNc1cccc2c1CCN(CC1CC1)C2 [Example 36, 2-(2-Cyclopropylmethyl-1,2,3,4-tetrahydro-isoquinolin-5-ylamino)-N-(2-dimethylamino-ethyl)-N-phenethyl-acetamide]
26 | 3 nM | CN(C)CCN(Cc1ccccc1F)C(=O)CNc1cccc2c1CCN(CC1CC1)C2 [Example 38, 2-(2-Cyclopropylmethyl-1,2,3,4-tetrahydro-isoquinolin-5-ylamino)-N-(2-dimethylamino-ethyl)-N-(2-fluoro-benzyl)-acetamide]
27 | 5 nM | O=C(CNc1cccc2c1CCN(CC1CC1)C2)N(CCN1CCCC1)Cc1ccccc1 [Example 41, N-Benzyl-2-(2-cyclopropylmethyl-1,2,3,4-tetrahydro-isoquinolin-5-ylamino)-N-(2-pyrrolidin-1-yl-ethyl)-acetamide]
28 | 2 nM | O=C(CNc1cccc2c1CCN(CC1CC1)C2)N(CCN1CCCC1)Cc1ccccc1Cl [Example 43, N-(2-Chloro-benzyl)-2-(2-cyclopropylmethyl-1,2,3,4-tetrahydro-isoquinolin-5-ylamino)-N-(2-pyrrolidin-1-yl-ethyl)-acetamide]
29 | 3 nM | O=C(CNc1cccc2c1CCN(CC1CC1)C2)N(CCN1CCCC1)Cc1ccccc1F [Example 44, 2-(2-Cyclopropylmethyl-1,2,3,4-tetrahydro-isoquinolin-5-ylamino)-N-(2-fluoro-benzyl)-N-(2-pyrrolidin-1-yl-ethyl)-acetamide]
30 | 3 nM | CN(C)CCN(Cc1cccc(C(F)(F)F)n1)C(=O)CNc1cccc2c1CCN(CC1CC1)C2 [Example 46, 2-(2-Cyclopropylmethyl-1,2,3,4-tetrahydro-isoquinolin-5-ylamino)-N-(2-dimethylamino-ethyl)-N-(6-trifluoromethyl-pyridin-2-ylmethyl)-acetamide]
31 | 2 nM | CN(C)CCN(Cc1ncccc1C(F)(F)F)C(=O)CNc1cccc2c1CCN(CC1CC1)C2 [Example 47, 2-(2-Cyclopropylmethyl-1,2,3,4-tetrahydro-isoquinolin-5-ylamino)-N-(2-dimethylamino-ethyl)-N-(3-trifluoromethyl-pyridin-2-ylmethyl)-acetamide]
32 | 6 nM | O=C(CNc1cccc2c1CCN(CC1CC1)C2)N(CCN1CCCC1)Cc1ccc(F)cc1Cl [Example 50, N-(2-Chloro-4-fluoro-benzyl)-2-(2-cyclopropylmethyl-1,2,3,4-tetrahydro-isoquinolin-5-ylamino)-N-(2-pyrrolidin-1-yl-ethyl)-acetamide]
33 | 3 nM | O=C(CNc1cccc2c1CCN(CC1CC1)C2)N(CCN1CCCC1)Cc1ccc(F)cc1F [Example 51, 2-(2-Cyclopropylmethyl-1,2,3,4-tetrahydro-isoquinolin-5-ylamino)-N-(2,4-difluoro-benzyl)-N-(2-pyrrolidin-1-yl-ethyl)-acetamide]
